# Columns and labels:
# [1] = tested on: fibroblasts (PHF) co-cultured with tumor cells, thyroid carcinoma; experiment: Marker expression (IHC) in PHF co-cultured with thyroid carcinoma tumor cells; type: cell-based, human; details: co-culture with thyroid carcinoma cells; SP 1 μM; 48 h;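 note: grown in fresh plasma from a healthy human donor, read-out is percent of fibroblasts positive for each marker, compared with fibroblasts cultured alone, run in six replicates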
# Procedure: (§1) All cultures were maintained 48 hours, following which the same cells were included in paraffin blocks for subsequent analysis of the expression of different markers by immunohistochemistry (see Example 1). […] All experiments were carried out sixfold. Analyzed markers in fibroblast cells (stromal cells) were: TGF-α, TGF-β1, TGF-β2, TGF-β3, SPARC, MMP-3, MMP-7, MMP-9, MMP-11, MMP-13 and MMP-14.
# [2] = tested on: fibroblasts (PHF) co-cultured with tumor cells, thyroid carcinoma (reference A-427); experiment: as above; type: cell-based, human; details: co-culture with thyroid carcinoma cells; SP 1 μM; 48 h
# Procedure: as §1
# [3] = tested on: fibroblasts (PHF) co-cultured with human fibrosarcoma tumor cells (HT-1080); experiment: Marker expression (IHC) in PHF co-cultured with HT-1080 tumor cells; type: cell-based; details: co-culture with HT-1080; SP 1 μM; 48 h;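 note: cultures grown in fresh human plasma from a healthy donor, six replicates, value is percent of fibroblasts positive for the marker, compared with fibroblasts cultured without tumor cells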
# Procedure: as §1
# [4] = tested on: fibroblasts (PHF) co-cultured with tumor cells of human endometrial carcinoma (AN3-CA); experiment: Marker expression (IHC) in PHF co-cultured with AN3-CA tumor cells; type: cell-based; details: co-culture with AN3-CA; SP 1 μM; 48 h;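 note: cultured in fresh healthy-donor blood plasma with added antibiotic-antimycotic, run in six replicates, values give percent of fibroblasts positive for each marker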
# Procedure: as §1
# [5] = tested on: mononuclear cells; experiment: Marker expression (immunohistochemistry) in mononuclear blood cells with SP alone or with NK1 antagonists; type: cell-based, human; details: SP 1 μM; 48 h
# Source text: Briefly, heparinized blood from healthy donors was centrifuged so as to separate the various components thereof. Red blood cells remained at the bottom of the tube. Above them was a small white layer composed of the white blood cells and above, on top of the tube, the blood plasma. The layer of white cells was distributed in a culture plate of 24 wells by adding in each the same concentration of blood plasma from the same donor, supplemented with 1% antibiotic-antimycotic (Invitrogen). In each well, approximately 1000 cells (PHF) skin from the dermis were further added, obtained as previously described in Example 2. […] After 48 hours of incubation, cells were collected and embedded in paraffin for expression analysis by immunohistochemical techniques (as described in Example 1).
# The expression of TGF molecular markers (anti-TGF 2, SAB4502956) and NF-kB (anti-NF-kB, SAB4501992) using specific antibodies against them were analyzed. All antibodies used were rabbit polyclonal antibodies obtained from Sigma Aldrich and were used at a concentration of 1/1000. All experiments were carried out sixfold.
# [6] = tested on: fibroblasts (PHF) co-cultured with tumor cells of human Burkitt lymphoma (CA-46); experiment: Marker expression (IHC) in PHF co-cultured with CA-46 tumor cells; type: cell-based; details: PHF co-cultured with CA-46 + SP;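 note: percentage of PHF fibroblasts positive for each marker, cultures grown in fresh human plasma from a healthy donor, six replicates, compared with fibroblasts cultured alone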
# Procedure: All cultures were maintained 48 hours, following which the same cells were included in paraffin blocks for subsequent analysis of the expression of different markers by immunohistochemistry (see Example 1). The primary antibodies used to perform immunohistochemical assays and their concentration are detailed in Example 2. All experiments were carried out sixfold. Analyzed markers in fibroblast cells (stromal cells) were: TGF-α, TGF-β1, TGF-β2, TGF-β3, SPARC, MMP-3, MMP-7, MMP-9, MMP-11, MMP-13 and MMP-14.
# [7] = tested on: fibroblasts (PHF) co-cultured with human melanoma tumor cells (MEL-HO1); experiment: Marker expression (IHC) in PHF co-cultured with MEL-HO1 tumor cells; type: cell-based; details: PHF co-cultured with MEL-HO1 + SP;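 note: values are the percentage of fibroblasts positive for each marker, with cultures grown in fresh healthy-donor blood plasma and each experiment run six times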
# Procedure: as §1
# [8] = tested on: macrophages in co-culture with cells isolated from primary human tumors; experiment: Marker expression (IHC) in macrophages co-cultured with primary human tumor cells (colon, breast, ovarian, lung carcinoma, melanoma); type: cell-based; details: SP 1 μM;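 note: macrophages came from pleural or peritoneal washings of the patient who also supplied the tumor cells, and both were co-cultured on fresh blood plasma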
# Procedure: To check that the interaction of tumor cells obtained directly from primary human immune cell/inflammatory (macrophages) cells, obtained from the patient stimulate secretion of substances by these macrophages recognized as important in survival of both cell types and in the progression of tumor cells, co-cultures were performed on fresh blood plasma, immune cell/inflammatory (macrophages) with tumor cells derived from primary tumors. All obtained from the same patient, to build an experimental model similar to human physiology.
# Macrophages were obtained from washing or pleural or peritoneal from the same patient from which the primary tumor cells were obtained in each case.
# [9] = tested on: fibroblasts (PHF) co-cultured with tumor cells of human cervix carcinoma (KB); experiment: Marker expression (IHC) in PHF co-cultured with KB tumor cells; type: cell-based; details: co-culture with KB; SP 1 μM; 48 h;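 note: percentage of PHF fibroblasts showing expression of each marker, cultured in fresh blood plasma from a healthy human donor, six replicates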
# Procedure: as §1
# [10] = co-culture with cells isolated from breast carcinoma
# [11] = co-culture with cells isolated from colon carcinoma
# [12] = co-culture with cells isolated from lung carcinoma
# [13] = co-culture with cells isolated from melanoma
# [14] = co-culture with cells isolated from ovarian carcinoma
structure (smiles),measurement,setting,value
CSCC[C@H](NC(=O)[C@H](CC(C)C)NC(=O)CNC(=O)[C@H](Cc1ccccc1)NC(=O)[C@H](Cc1ccccc1)NC(=O)[C@H](CCC(N)=O)NC(=O)[C@H](CCC(N)=O)NC(=O)[C@@H]1CCCN1C(=O)[C@H](CCCCN)NC(=O)[C@@H]1CCCN1C(=O)[C@@H](N)CCCNC(=N)N)C(N)=O [SP],PHF cells expressing MMP-11,[1],29.4 ± 3.8%
same,PHF cells expressing MMP-3,[2],43.1 ± 1.7%
same,PHF cells expressing MMP-7,[2],56.4 ± 3.8%
same,PHF cells expressing MMP-9,[2],51.4 ± 3.4%
same,PHF cells expressing MMP-13,[2],4.25 ± 3.6%
same,PHF cells expressing MMP-14,[2],49.1 ± 3.6%
same,PHF cells expressing SPARC,[2],48.1 ± 1.3%
same,PHF cells expressing TGF-α,[2],42.4 ± 1.2%
same,PHF cells expressing TGF-β1,[2],33.7 ± 1.3%
same,PHF cells expressing TGF-β2,[2],42.6 ± 1.1%
same,PHF cells expressing TGF-β3,[2],42.1 ± 1.5%
same,PHF cells expressing MMP-3,[3],43.4 ± 2.8%
same,PHF cells expressing MMP-7,[3],57.1 ± 3.8%
same,PHF cells expressing MMP-9,[3],52.3 ± 2.4%
same,PHF cells expressing MMP-11,[3],27.5 ± 3.8%
same,PHF cells expressing MMP-13,[3],45.4 ± 3.6%
same,PHF cells expressing MMP-14,[3],49.3 ± 3.5%
same,PHF cells expressing SPARC,[3],51.2 ± 3.3%
same,PHF cells expressing TGF-α,[3],42.5 ± 3.1%
same,PHF cells expressing TGF-β1,[3],33.6 ± 3.1%
same,PHF cells expressing TGF-β2,[3],40.7 ± 2.1%
same,PHF cells expressing TGF-β3,[3],51 ± 1.6%
same,PHF cells expressing MMP-3,[4],44.2 ± 2.7%
same,PHF cells expressing MMP-7,[4],54.4 ± 2.1%
same,PHF cells expressing MMP-9,[4],54.3 ± 1.6%
same,PHF cells expressing MMP-11,[4],29.4 ± 1.8%
same,PHF cells expressing MMP-13,[4],49 ± 3.4%
same,PHF cells expressing MMP-14,[4],45.2 ± 3.5%
same,PHF cells expressing SPARC,[4],49 ± 1.5%
same,PHF cells expressing TGF-α,[4],42.4 ± 2%
same,PHF cells expressing TGF-β1,[4],33.3 ± 3.1%
same,PHF cells expressing TGF-β2,[4],43.5 ± 1.1%
same,PHF cells expressing TGF-β3,[4],44 ± 1.56%
same,mononuclear cells expressing NF-kB,[5],25.7 ± 1.4%
same,mononuclear cells expressing TGF-β,[5],16.4 ± 1.2%
same,cells expressing MMP-3,[6],63.4 ± 4.3%
same,cells expressing MMP-7,[6],66.1 ± 3.8%
same,cells expressing MMP-9,[6],72.3 ± 4.4%
same,cells expressing MMP-11,[6],67.4 ± 5.8%
same,cells expressing MMP-13,[6],55 ± 6.4%
same,cells expressing MMP-14,[6],59.1 ± 6.3%
same,cells expressing SPARC,[6],77 ± 4.2%
same,cells expressing TGF-α,[6],61.4 ± 5.1%
same,cells expressing TGF-β1,[6],63.4 ± 4.1%
same,cells expressing TGF-β2,[6],60.5 ± 5.1%
same,cells expressing TGF-β3,[6],71 ± 4.56%
same,cells expressing MMP-3,[7],44.5 ± 4.7%
same,cells expressing MMP-7,[7],55.5 ± 3.8%
same,cells expressing MMP-9,[7],53.3 ± 2.4%
same,cells expressing MMP-11,[7],24.4 ± 3.8%
same,cells expressing MMP-13,[7],46.1 ± 3.5%
same,cells expressing MMP-14,[7],46.2 ± 3.5%
same,cells expressing SPARC,[7],44.5 ± 1.4%
same,cells expressing TGF-α,[7],42.4 ± 3.2%
same,cells expressing TGF-β1,[7],42.5 ± 2.1%
same,cells expressing TGF-β2,[7],44.5 ± 1.9%
same,cells expressing TGF-β3,[7],43.5 ± 2.6%
same,Percentage of macrophages which expressed EGF,[8]; [10],41.6 ± 4.2%
same,Percentage of macrophages which expressed MMP-9,[8]; [10],39.5 ± 3.2%
same,Percentage of macrophages which expressed VEGF,[8]; [10],37.4 ± 4.2%
same,Percentage of macrophages which expressed EGF,[8]; [11],41.4 ± 4.2%
same,Percentage of macrophages which expressed MMP-9,[8]; [11],39.5 ± 3.5%
same,Percentage of macrophages which expressed VEGF,[8]; [11],38.5 ± 2.9%
same,Percentage of macrophages which expressed EGF,[8]; [12],38.4 ± 2.9%
same,Percentage of macrophages which expressed MMP-9,[8]; [12],39.4 ± 3.7%
same,Percentage of macrophages which expressed VEGF,[8]; [12],37.4 ± 4.2%
same,Percentage of macrophages which expressed EGF,[8]; [13],41.9 ± 3.2%
same,Percentage of macrophages which expressed MMP-9,[8]; [13],39.5 ± 5.3%
same,Percentage of macrophages which expressed VEGF,[8]; [13],35.4 ± 4.4%
same,Percentage of macrophages which expressed EGF,[8]; [14],41.5 ± 4.2%
same,Percentage of macrophages which expressed MMP-9,[8]; [14],39.5 ± 3.2%
same,Percentage of macrophages which expressed VEGF,[8]; [14],37.4 ± 4%
same,PHF cells expressing MMP-3,[9],42.6 ± 1.8%
same,PHF cells expressing MMP-7,[9],57.5 ± 5.8%
same,PHF cells expressing MMP-9,[9],57.3 ± 6.4%
same,PHF cells expressing MMP-11,[9],36.4 ± 6.8%
same,PHF cells expressing MMP-13,[9],45.4 ± 3.7%
same,PHF cells expressing MMP-14,[9],51.6 ± 3.5%
same,PHF cells expressing SPARC,[9],46.9 ± 1.6%
same,PHF cells expressing TGF-α,[9],33.4 ± 1.1%
same,PHF cells expressing TGF-β1,[9],34.5 ± 1.1%
same,PHF cells expressing TGF-β2,[9],45.6 ± 1.1%
same,PHF cells expressing TGF-β3,[9],44.5 ± 3.1%
